According to patent US20230096766A1, “AMINO ACID HAVING FUNCTIONAL GROUP CAPABLE OF INTERMOLECULAR HYDROGEN BONDING, PEPTIDE COMPOUND CONTAINING SAME AND METHOD FOR PRODUCTION THEREOF” (Chugai Seiyaku Kabushiki Kaisha, priority 2018, published 2023):
*1 amine or outer side, *2 acyl side, *3 side chain or, on linkers, in order; H or OH if unused. Where a SMILES comes first, the peptide text is derived from it. Bridges are numbered along the chain shown (N, C = ends). [ ]: non-standard residue; d: D form. The star is where a group is joined. ξ: configuration not given here. NMePhe(3-Cl) = CN[C@@H](Cc1cccc(Cl)c1)C(=O)O; X9 = O=C([C@@H](CN[*:1])COCCO)[*:2]; Propyl(2,2-Me2,3-OH) = CC(C)(CO)C*; NMeF = CN[C@@H](Cc1ccccc1)C(=O)O; NMeGABA = CN(CCCC(=O)[*:2])[*:1]; NMeL = CN[C@@H](CC(C)C)C(=O)O; Butyl(3R-OH) = C[C@@H](O)CC*; ξNMeF = CNC(Cc1ccccc1)C(=O)O; Butyl(3S-OH) = C[C@H](O)CC*; NMeV = CN[C@H](C(=O)O)C(C)C; NMeAbu = CC[C@H](NC)C(=O)O; NMeA = CN[C@@H](C)C(=O)O; Piperidide = C1CCN(*)CC1; dAbu = CC[C@@H](N)C(=O)O; NBuGly = CCCCNCC(=O)O; NPrGly = CCCNCC(=O)O; ξV = CC(C)C(N)C(=O)O; ξS = NC(CO)C(=O)O; Sar = CNCC(=O)O; tBu = CC(C)(C)*

Assay: in vitro
Details: human, Caco-2, Caco-2 (cm/sec)

Structure (SMILES)	Papp [×10⁻⁶ cm/s]
CCCCN1CC(=O)N(C)[C@@H](Cc2cccc(Cl)c2)C(=O)N(C)[C@@H](CC(C)C)C(=O)N[C@@H](COCC[C@H](C)O)C(=O)N(C)[C@@H](CC(C)C)C(=O)N[C@H](C(=O)N2CCCCC2)CC(=O)N(C)CC(=O)N(C)[C@@H](Cc2ccccc2)C(=O)N[C@@H](C(C)C)C(=O)N(C)[C@@H](CC(C)C)C(=O)N[C@@H]([C@@H](C)O)C1=O [AP106] ([Sar][NMeF]V[NMeL]T[NBuGly][NMePhe(3-Cl)][NMeL]S(Butyl(3S-OH))[NMeL]D-Piperidide; lactam N-11)	0.25
CCCCN1CC(=O)N(C)[C@@H](C(C)C)C(=O)N[C@@H](COC(C)(C)C)C(=O)N(C)[C@@H](Cc2ccccc2)C(=O)N(C)[C@@H](CC(C)C)C(=O)N[C@H](C(=O)N2CCCCC2)CC(=O)N[C@H](C(C)C)C(=O)N(C)[C@@H](Cc2ccccc2)C(=O)N[C@@H](COCC[C@@H](C)O)C(=O)N(C)[C@@H](CC(C)C)C(=O)N[C@@H]([C@@H](C)O)C1=O [AP108] ([dV][NMeF]S(Butyl(3R-OH))[NMeL]T[NBuGly][NMeV]S(tBu)[NMeF][NMeL]D-Piperidide; lactam N-11)	0.81
CC(C)C[C@@H]1NC(=O)[C@H](Cc2ccccc2)N(C)C(=O)[C@@H](C(C)C)NC(=O)C[C@@H](C(=O)N2CCCCC2)NC(=O)[C@H](CC(C)C)N(C)C(=O)[C@H](Cc2cccc(Cl)c2)N(C)C(=O)[C@H](COCC[C@@H](C)O)NC(=O)[C@H](CC(C)C)N(C)C(=O)CN(C)C(=O)[C@H]([C@@H](C)O)NC(=O)[C@H](CC(C)C)N(C)C1=O [AP109] ([dV][NMeF]L[NMeL]T[Sar][NMeL]S(Butyl(3R-OH))[NMePhe(3-Cl)][NMeL]D-Piperidide; lactam N-11)	0.64
CC(C)C[C@H]1C(=O)N[C@@H]([C@@H](C)O)C(=O)N(C)[C@@H](CC(C)C)C(=O)N(C)[C@@H](CC(C)C)C(=O)N[C@H](C(=O)N2CCCCC2)CC(=O)N(C)CCCC(=O)N(C)[C@@H](C(C)C)C(=O)N[C@@H](COCC[C@@H](C)O)C(=O)N(C)[C@@H](Cc2ccccc2)C(=O)N(C)[C@@H](Cc2cccc(Cl)c2)C(=O)N[C@@H](COC(C)(C)C)C(=O)N1C [AP110] ([NMeGABA][NMeV]S(Butyl(3R-OH))[NMeF][NMePhe(3-Cl)]S(tBu)[NMeL]T[NMeL][NMeL]D-Piperidide; lactam N-11)	0.23
CC(C)C[C@H]1C(=O)NC(C(C)C)C(=O)N(C)[C@@H](Cc2ccccc2)C(=O)N(C)[C@@H](Cc2cccc(Cl)c2)C(=O)N[C@@H](COCC[C@@H](C)O)C(=O)N(C)[C@@H](CC(C)C)C(=O)N[C@@H]([C@@H](C)O)C(=O)N(C)[C@@H](CC(C)C)C(=O)N(C)[C@@H](CC(C)C)C(=O)N[C@H](C(=O)N2CCCCC2)CC(=O)N(C)CCCC(=O)N1C (stereo partly drawn) [AP111] ([NMeGABA][NMeL][ξV][NMeF][NMePhe(3-Cl)]S(Butyl(3R-OH))[NMeL]T[NMeL][NMeL]D-Piperidide; lactam N-11)	0.13
CCCCN1CC(=O)N(C)[C@@H](CC(C)C)C(=O)N[C@H](C(=O)N2CCCCC2)CC(=O)N(C)[C@@H](C)C(=O)N[C@@H](COCC[C@@H](C)O)C(=O)N(C)[C@@H](CC(C)C)C(=O)N(C)[C@@H](Cc2cccc(Cl)c2)C(=O)N[C@@H](CC(C)C)C(=O)N(C)[C@@H](Cc2ccccc2)C(=O)N(C)[C@@H](C(C)C)C(=O)N[C@@H]([C@@H](C)O)C1=O [AP112] ([NMeA]S(Butyl(3R-OH))[NMeL][NMePhe(3-Cl)]L[NMeF][NMeV]T[NBuGly][NMeL]D-Piperidide; lactam N-11)	0.73
CCCCN1CC(=O)N(C)[C@@H](Cc2cccc(Cl)c2)C(=O)N(C)[C@@H](CC(C)C)C(=O)N[C@@H](COCC[C@@H](C)O)C(=O)N(C)[C@@H](CC(C)C)C(=O)N[C@H](C(=O)N2CCCCC2)CC(=O)N(C)CC(=O)N(C)[C@@H](Cc2ccccc2)C(=O)N[C@@H](C(C)C)C(=O)N(C)[C@@H](CC(C)C)C(=O)N[C@@H]([C@@H](C)O)C1=O [AP114] ([Sar][NMeF]V[NMeL]T[NBuGly][NMePhe(3-Cl)][NMeL]S(Butyl(3R-OH))[NMeL]D-Piperidide; lactam N-11)	0.28
CC(C)C[C@H]1C(=O)N[C@@H](COCC[C@@H](C)O)C(=O)N(C)[C@@H](Cc2ccccc2)C(=O)N(C)[C@@H](Cc2cccc(Cl)c2)C(=O)N[C@@H](COC(C)(C)C)C(=O)N(C)[C@@H](CC(C)C)C(=O)N[C@@H]([C@@H](C)O)C(=O)N(C)[C@@H](CC(C)C)C(=O)N(C)[C@@H](CC(C)C)C(=O)N[C@H](C(=O)N2CCCCC2)CC(=O)N(C)CCCC(=O)N1C [AP115] ([NMeGABA][NMeL]S(Butyl(3R-OH))[NMeF][NMePhe(3-Cl)]S(tBu)[NMeL]T[NMeL][NMeL]D-Piperidide; lactam N-11)	0.27
CCCCN1CC(=O)N(C)[C@@H](CC(C)C)C(=O)N[C@@H](COC(C)(C)C)C(=O)N(C)[C@@H](Cc2ccccc2)C(=O)N(C)[C@@H](CC(C)C)C(=O)N[C@H](C(=O)N2CCCCC2)CC(=O)N[C@H](CC)C(=O)N(C)[C@@H](Cc2ccccc2)C(=O)N[C@@H](COCC(C)(C)CO)C(=O)N(C)[C@@H](CC(C)C)C(=O)N[C@@H]([C@@H](C)O)C1=O [AP117] ([dAbu][NMeF]S(Propyl(2,2-Me2,3-OH))[NMeL]T[NBuGly][NMeL]S(tBu)[NMeF][NMeL]D-Piperidide; lactam N-11)	0.36
CC(C)C[C@@H]1NC(=O)[C@H](Cc2ccccc2)N(C)C(=O)[C@@H](C(C)C)NC(=O)C[C@@H](C(=O)N2CCCCC2)NC(=O)[C@H](CC(C)C)N(C)C(=O)[C@H](Cc2ccccc2)N(C)C(=O)[C@H](COCC(C)(C)CO)NC(=O)[C@H](CC(C)C)N(C)C(=O)CN(C)C(=O)[C@H]([C@@H](C)O)NC(=O)[C@H](CC(C)C)N(C)C1=O [AP118] ([dV][NMeF]L[NMeL]T[Sar][NMeL]S(Propyl(2,2-Me2,3-OH))[NMeF][NMeL]D-Piperidide; lactam N-11)	1.8
CC[C@H](C)[C@@H]1NC(=O)[C@H](CC(C)C)N(C)C(=O)CCCN(C)C(=O)C[C@@H](C(=O)N2CCCCC2)NC(=O)[C@H](CC(C)C)N(C)C(=O)[C@H](CC(C)C)N(C)C(=O)[C@H]([C@@H](C)O)NC(=O)[C@H](CC(C)C)N(C)C(=O)[C@H](COCC(C)(C)CO)NC(=O)[C@H](Cc2ccccc2)N(C)C(=O)[C@H](Cc2ccccc2)N(C)C1=O [AP120] ([NMeGABA][NMeL]I[NMeF][NMeF]S(Propyl(2,2-Me2,3-OH))[NMeL]T[NMeL][NMeL]D-Piperidide; lactam N-11)	1.1
CCCCN1CC(=O)N(C)[C@@H](CC(C)C)C(=O)N[C@H](C(=O)N2CCCCC2)CC(=O)N(C)[C@@H](C)C(=O)N[C@@H](COCC(C)(C)CO)C(=O)N(C)[C@@H](CC(C)C)C(=O)N(C)[C@@H](Cc2ccccc2)C(=O)N[C@@H](C(C)C)C(=O)N(C)[C@@H](Cc2ccccc2)C(=O)N(C)[C@@H](CC(C)C)C(=O)N[C@@H]([C@@H](C)O)C1=O [AP121] ([NMeA]S(Propyl(2,2-Me2,3-OH))[NMeL][NMeF]V[NMeF][NMeL]T[NBuGly][NMeL]D-Piperidide; lactam N-11)	3.1
CC[C@H]1C(=O)N[C@@H](CC(C)C)C(=O)N(C)[C@@H](CC(C)C)C(=O)N(C)[C@@H](Cc2ccccc2)C(=O)NC(COCC(C)(C)CO)C(=O)N(C)[C@@H](Cc2ccccc2)C(=O)N(C)[C@@H](CC(C)C)C(=O)N[C@@H]([C@@H](C)O)C(=O)N(C)CC(=O)N(C)[C@@H](CC(C)C)C(=O)N[C@H](C(=O)N2CCCCC2)CC(=O)N1C (stereo partly drawn) [AP122] ([NMeAbu]L[NMeL][NMeF][ξS](Propyl(2,2-Me2,3-OH))[NMeF][NMeL]T[Sar][NMeL]D-Piperidide; lactam N-11)	2.9
CCCCN1CC(=O)N(C)[C@@H](Cc2ccccc2)C(=O)N(C)[C@@H](C(C)C)C(=O)N[C@@H](COC(C)(C)C)C(=O)N(C)[C@@H](CC(C)C)C(=O)N[C@H](C(=O)N2CCCCC2)CC(=O)N(C)CC(=O)N(C)[C@@H](Cc2cccc(Cl)c2)C(=O)N[C@@H](COCC(C)(C)CO)C(=O)N(C)[C@@H](CC(C)C)C(=O)N[C@@H]([C@@H](C)O)C1=O [AP123] ([Sar][NMePhe(3-Cl)]S(Propyl(2,2-Me2,3-OH))[NMeL]T[NBuGly][NMeF][NMeV]S(tBu)[NMeL]D-Piperidide; lactam N-11)	0.8
CCCCN1CC(=O)N(C)[C@@H](Cc2ccccc2)C(=O)N(C)[C@@H](CC(C)C)C(=O)N[C@@H](COCC(C)(C)CO)C(=O)N(C)[C@@H](CC(C)C)C(=O)N[C@H](C(=O)N2CCCCC2)CC(=O)N(C)CC(=O)N(C)[C@@H](Cc2ccccc2)C(=O)N[C@@H](C(C)C)C(=O)N(C)[C@@H](CC(C)C)C(=O)N[C@@H]([C@@H](C)O)C1=O [AP124] ([Sar][NMeF]V[NMeL]T[NBuGly][NMeF][NMeL]S(Propyl(2,2-Me2,3-OH))[NMeL]D-Piperidide; lactam N-11)	1.6
CCCCN1CC(=O)N(C)[C@@H](CC(C)C)C(=O)N[C@@H](COCC(C)(C)CO)C(=O)N(C)[C@@H](Cc2ccccc2)C(=O)N(C)[C@@H](CC(C)C)C(=O)N[C@H](C(=O)N2CCCCC2)CC(=O)N[C@H](C(C)C)C(=O)N(C)C(Cc2ccccc2)C(=O)N[C@@H](CC(C)C)C(=O)N(C)[C@@H](CC(C)C)C(=O)N[C@@H]([C@@H](C)O)C1=O (stereo partly drawn) [AP126] ([dV][ξNMeF]L[NMeL]T[NBuGly][NMeL]S(Propyl(2,2-Me2,3-OH))[NMeF][NMeL]D-Piperidide; lactam N-11)	0.14
CCCN1CC(=O)N(C)[C@@H](CC(C)C)C(=O)N[C@@H](CC(C)C)C(=O)N(C)[C@@H](Cc2ccccc2)C(=O)N(C)[C@@H](CC(C)C)C(=O)N[C@H](C(=O)N2CCCCC2)CC(=O)N[C@H](CC(C)C)C(=O)N(C)[C@@H](Cc2ccccc2)C(=O)NC[C@@H](COCCO)C(=O)N(C)[C@@H](CC(C)C)C(=O)N[C@@H]([C@@H](C)O)C1=O [AP127] ([dL][NMeF][X9][NMeL]T[NPrGly][NMeL]L[NMeF][NMeL]D-Piperidide; lactam N-11)	0.3
CCCCN1CC(=O)N(C)[C@@H](CC(C)C)C(=O)NC[C@@H](COCCO)C(=O)N(C)[C@@H](Cc2ccccc2)C(=O)N(C)[C@@H](CC(C)C)C(=O)N[C@H](C(=O)N2CCCCC2)CC(=O)N[C@H](CC(C)C)C(=O)N(C)[C@@H](CC(C)C)C(=O)N[C@@H](Cc2ccccc2)C(=O)N(C)[C@@H](CC(C)C)C(=O)N[C@@H]([C@@H](C)O)C1=O [AP128] ([dL][NMeL]F[NMeL]T[NBuGly][NMeL][X9][NMeF][NMeL]D-Piperidide; lactam N-11)	0.78
